Reference: US20150135343A1, “GTP Sensors” (The Board of Regents of the University of Texas System, priority 2012, published 2015)

Legend:
[1] = target: T1, 5a5a-GTP sensor (E. coli FeoB-cpYFP fusion), 5a5a-WT, SEQ ID NO:14 (Escherichia coli, UniProt P33650, E42P/INS38[…]); assay: Effective dissociation constant (Keff) determination, 5a5a-WT; format: binding; conditions: FIG. 7 and FIG. 8
T1 construct: made in house
Description: DNA encoding a cpYFP was inserted into the DNA encoding residues 35-40 of the FeoB G-protein domain (residues 1-260). Six insertion sites—spaced one codon apart—and 4 combinations of linker lengths between the N- and C-termini of the cpYFP and FeoB genes were used to construct 24 different fusion proteins. Nomenclature followed the form “FY1a-1a”, were the number designates the cpYFP insertion site, with “1” corresponding to insertion after FeoB residue 35 and “6” to insertion after residue 40, and where an “a” after the number indicates the presence of a ser-ala-gly or gly-thr linker at, respectively, the N- or C-terminus of the cpYFP.
The fluorescence from the GTP insensitive protein provided a way to normalize the GTP-sensitive fluorescent signal. […] The ratio of the fluorescence at these two excitation wavelengths is therefore internally normalized for changes in sensor expression levels. In addition, using a single FP provides certain advantages over a 2-FP sensor: (1.) A single FP sensor still generates a ratiometric signal because the binding of GTP causes a […] in fluorescence when excited at longer wavelengths (˜500 nm) but a […] in when excited at shorter (˜400 nm) wavelengths. […] (3.) The change in fluorescence ratio varies from 2-6 fold, depending on pH. […]

[2] = target: T2, AF/FA GTP sensor (mAmetrine 1.1 and E. coli FeoB-cpYFP fusion) 11A variant 1214, P12G+S14A, GNAGKTT (SEQ ID NO: 8) (Escherichia coli, UniProt P33650, P12G/S14A); assay: GTP binding analysis, fluorescence titration, sensor 1214
T2 construct: modified pET32, His-tag/NiNTA, E. coli BL21(DE3)
Method: (§1) Expression and purification: The FA/AF11A protein construct in a modified pET32 vector was used to transform BL21 (DE3) cells. Protein expression was induced with IPTG at a final concentration of 1 mM when the cell OD600 reached 0.6-0.8. Cells were grown for a further 12-14 hrs at 30° C. overnight. Cells were harvested in the morning, suspended in 50 mM TrisHCl, pH 8.3, 2 mM NaCl, 0.1% (v/v) Tween-20, 10 mM imidazole, 1 mM PMSF (lysis buffer), and lysed by sonication. Cell debris was removed by spinning at 17000 rpm for 30 minutes at 4° C. in a Sorvall RC-5C centrifuge equipped with a SS-34 rotor. The lysate, which is bright yellow, was applied to a NiNTA column equilibrated with the same lysis buffer. The loaded NiNTA column was washed with 5 volumes of the lysis buffer followed by 2-volumes of 50 mM TrisHCl, pH8.3, 400 mM NaCl, 50 mM imidazole. Then the protein was eluted in 2 volumes of 50 mM TrisHCl, pH 7.5, 100 mM NaCl, 300 mM imidazole. […] Protein concentration was determined with a BCA assay-kit from Invitrogen using bovine serum albumin for the calibration curve.
(§2) Fluorescent emission spectra of FA/AF11A were obtained at ˜1 μM in binding buffer and 3.0 ml in a quartz cuvette. […] Titrations with GTP, GDP, and ATP were carried out in a BioTeK plate reader on 96-well fluorescence plates from Whatman. […]

[3] = target: T3, AF/FA GTP sensor (mAmetrine 1.1 and E. coli FeoB-cpYFP fusion) 11A variant 1217, GNSGKST (SEQ ID NO: 9) (Escherichia coli, UniProt P33650, P12G/T17S); assay: GTP binding analysis, fluorescence titration, sensor 1217
T3 construct: modified pET32, His-tag/NiNTA, E. coli BL21(DE3)
Method: as §1, §2

[4] = target: T4, AF/FA GTP sensor (mAmetrine 1.1 and E. coli FeoB-cpYFP fusion) 11A variant 12, P12G, GNSGKTT (SEQ ID NO: 7) (Escherichia coli, UniProt P33650, P12G); assay: GTP binding analysis, fluorescence titration, sensor 12
T4 construct: modified pET32, His-tag/NiNTA, E. coli BL21(DE3)
Method: as §1, §2

[5] = target: T5, AF/FA GTP sensor (mAmetrine 1.1 and E. coli FeoB-cpYFP fusion) 11A variant Triple, GNAGKST (SEQ ID NO: 10) (Escherichia coli, UniProt P33650, P12G/S14A/T17S); assay: GTP binding analysis, fluorescence titration, sensor Triple
T5 construct: modified pET32, His-tag/NiNTA, E. coli BL21(DE3)
Method: as §1, §2

[6] = tested on: FeoB, G-protein domain of FeoB protein from Escherichia coli, SEQ ID NO:3; conditions: cited from earlier work
HEK293 cells = assay: In vivo validation: ratiometric imaging of transfected HEK293 cells with or without MPA; format: cell-based; conditions: 20 μM MPA, HEK293 cells with AF-Triple sensor
Method: (§3) AF/FA GTP sensors were subcloned into a pGW1 mammalian cell expression vector with a cytomegalovirus (CMV) promoter. HEK293 cells were transfected with the plasmid DNA using the GenJet (SignaGen) transfection reagent according to the manufacturer's instructions. Cells were allowed to grow for ˜24 hrs before being treated with mycophenolic acid (MPA), which inhibits GTP synthesis. Cells were imaged 20 hrs after drug administration. All cell cultures were carried out with DMEM containing 10% FBS and penicillin/streptomycin and grown at 37° C. in an atmosphere with 5% CO2. Passage number of cells was less than 30 for all experiments.
(§4) Imaging: Cells were imaged in a LabTek 8-chamber 1.5 coverslip-bottom culture-cum-imaging wells. Nikon Eclipse inverted epifluorescence microscope with Sedat Quad 89000 (Chroma Tech) filter along with Sutter instruments automated filter wheel controls was used for all imaging purposes. To ensure adequate signal, 2×2 binning was used. […]
(§5) Images were obtained individually without using the Nikon NIS software ratiometric collection mode. All image quantitative analyses were carried out with the public domain ImageJ (http://rsbweb.nih.gov/ij/) in conjunction with MS Excel and Origin 7. […] Then the ratios of the two intensities were calculated along with the relevant statistics.

[7] = tested on: HEK293 cells transfected with AF-AAA GTP sensor; assay: MPA treatment of HEK293 cells expressing AF-AAA sensor, ratiometric imaging; format: cell-based; conditions: 20 μM MPA, 20 hrs; GTP-insensitive control sensor
Method: as §3, §4, §5

[8] = tested on: HEK293 cells transfected with AF-Triple GTP sensor; assay: MPA treatment of HEK293 cells expressing AF-Triple sensor, ratiometric imaging; format: cell-based; conditions: 20 μM MPA
Method: as §3, §4, §5

Compound: Nc1nc2c(ncn2[C@H]2C[C@H](O)[C@@H](COP(=O)(O)OP(=O)(O)OP(=O)(O)O)O2)c(=O)[nH]1 [dGTP]
- binding of dGTP relative to GTP [1]: as well as, if not slightly better than GTP itself

Compound: Nc1nc2c(ncn2[C@@H]2O[C@H](COP(=O)(O)OP(=O)(O)O)[C@@H](O)[C@H]2O)c(=O)[nH]1 [GDP]
- Kd [2]: 525 µM
- Kd [3]: ~650 µM
- Kd [4]: 382 µM
- Kd [5]: ~1000 µM
- rate of GDP release ([6]; 35° C., too fast to measure by stop-flow methods, estimated): > 1000 s⁻¹

Compound: Nc1nc2c(ncn2[C@@H]2O[C@H](COP(=O)(O)OP(=O)(O)OP(=O)(O)O)[C@@H](O)[C@H]2O)c(=O)[nH]1 [GTP, guanosine triphosphate]
- Kd [2]: 177 µM
- Kd [3]: 275 µM
- Kd [4]: 85 µM
- Kd [5]: 517 µM
- off-rate (GTP) ([6]; 35° C.): 12 s⁻¹
- on-rate for GTP ([6]; 35° C.): 800000 M⁻¹ s⁻¹
- rate of GTP hydrolysis [6]: 0.0015 s⁻¹
- rate of GTP hydrolysis, fold slower than the rate of GTP release ([6]; ratio): about 5000 fold

Compound: COc1c(C)c2c(c(O)c1C/C=C(\C)CCC(=O)O)C(=O)OC2 [MPA, mycophenolic acid]
- cpYFP (green) signal of cells vs untreated (HEK293 cells): brighter green hue
- effect of MPA treatment on ratiometric signal [7]: no effect
- effect of MPA treatment on ratiometric signal (distribution of ratio and average value) ([8]; 20 hrs, p-value of 0.005): distinct difference in the distribution of the ratio as well as the average value
- GTP-sensitive signal (cpYFP green) after MPA treatment ([8]; signal inversely related to GTP concentration): brighter green hue than those untreated
